ChEMBL document CHEMBL1150011 (Bioorg Med Chem Lett, 1996)

Columns and labels:
Adenosine receptor A1 [1] = biological target: T1, Adenosine receptor A1 (Rattus norvegicus, UniProt P25099); assay: Inhibition of [3H]CHA binding against Adenosine A1 receptors of rat cortical membranes; format: cell membranes, Membrane
T1 sequence (P25099 whole entry): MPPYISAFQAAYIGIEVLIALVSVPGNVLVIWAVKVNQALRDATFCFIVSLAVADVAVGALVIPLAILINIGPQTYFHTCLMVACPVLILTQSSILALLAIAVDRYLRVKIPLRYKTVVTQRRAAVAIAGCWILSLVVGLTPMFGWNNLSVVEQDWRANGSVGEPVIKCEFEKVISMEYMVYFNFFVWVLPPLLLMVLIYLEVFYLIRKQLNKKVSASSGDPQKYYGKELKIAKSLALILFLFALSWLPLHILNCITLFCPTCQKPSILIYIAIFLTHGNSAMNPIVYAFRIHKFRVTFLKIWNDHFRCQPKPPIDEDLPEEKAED

Rattus norvegicus [2] = assay: Diuretic activity in rat was determined by measuring sodium excretion at a dose of 10 mg/kg upon oral administration; format: functional, Urine
Rattus norvegicus [3] = assay: Diuretic activity in rat was determined by measuring urine volume at a dose of 10 mg/kg upon oral administration; format: functional
Adenosine receptor A1 [4] = biological target: T2, Adenosine receptor A1 (Cavia porcellus, UniProt P47745); assay: Inhibition of adenosine induced negative inotropic activity against guinea-pig atria (Adenosine A1 receptor) at 10 nM; format: functional
T2 sequence (P47745 whole entry): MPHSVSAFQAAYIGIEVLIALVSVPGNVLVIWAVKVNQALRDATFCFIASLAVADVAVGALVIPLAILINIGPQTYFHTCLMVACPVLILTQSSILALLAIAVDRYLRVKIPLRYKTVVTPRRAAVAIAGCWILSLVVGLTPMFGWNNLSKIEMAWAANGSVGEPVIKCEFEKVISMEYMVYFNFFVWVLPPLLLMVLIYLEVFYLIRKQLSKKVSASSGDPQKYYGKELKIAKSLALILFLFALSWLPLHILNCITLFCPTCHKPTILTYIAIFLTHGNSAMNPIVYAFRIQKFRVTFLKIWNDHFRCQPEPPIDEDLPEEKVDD

Adenosine receptor A1 [5] = biological target: T2, Adenosine receptor A1; assay: Inhibition of adenosine induced negative inotropic activity against guinea-pig atria (Adenosine A1 receptor); format: functional

SMILES	IC50 (Adenosine receptor A1 [1]) [nM]	IC50 (Adenosine receptor A1 [4]) [nM]	IC50 (Adenosine receptor A1 [5]) [nM]	Sodium excretion (% of control) (Rattus norvegicus [2]) [%]	Urine volume (% of control) (Rattus norvegicus [3]) [%]
O=C(/C=C/c1c(-c2ccccc2)nn2ccccc12)N1CCCCC1				179	195
CC[C@@H]1CCCCN1C(=O)/C=C/c1c(-c2ccccc2)nn2ccccc12				220	201
CC[C@H]1CCCCN1C(=O)/C=C/c1c(-c2ccccc2)nn2ccccc12				91	94
O=C(/C=C/c1c(-c2ccccc2)nn2ccccc12)N1CCCC[C@H]1CCO	17.2		0.56	280	272

Now from value to molecule, other results behind:

IC50 (Adenosine receptor A1 [1]) [nM]	IC50 (Adenosine receptor A1 [4]) [nM]	IC50 (Adenosine receptor A1 [5]) [nM]	SMILES	Sodium excretion (% of control) (Rattus norvegicus [2]) [%]	Urine volume (% of control) (Rattus norvegicus [3]) [%]
10100			O=C(/C=C/c1c(-c2ccccc2)nn2ccccc12)N1CCCC[C@@H]1CCO [FK453]	96	96
	91		CCC1CCCCN1C(=O)/C=C/c1c(-c2ccccc2)nc2sc(C)nn12 (stereo unspecified)	278	242
